Data as given in ChEMBL document CHEMBL5518230, “Identification of a Novel Selective CDK9 Inhibitor for the Treatment of CRC: Design, Synthesis, and Biological Activity Evaluation” (J Med Chem, 2024).

What follows are compounds tested on HT-29 (assay: Growth inhibition of human HT-29 cells incubated for 48 hrs by CCK-8 assay).
Type: functional

SMILES | GI50 [nM]
CC(C)n1nnc2ccc(-c3ccnc(Nc4cc(C(=O)N5CCN(C)CC5)ccn4)c3)cc21 | 770
CC(C)n1nnc2ccc(-c3ccnc(Nc4cc(C(=O)N5CCOCC5)ccn4)c3)cc21 | 650
CC(C)n1nnc2ccc(-c3ccnc(Nc4ccc(C(=O)N5CCCC5)cn4)c3)cc21 | 350
CC(C)n1nnc2ccc(-c3ccnc(Nc4cc(C(=O)N5CCNC(=O)C5)ccn4)c3)cc21 | > 2000
CC(C)n1nnc2ccc(-c3ccnc(Nc4ccc(C(=O)N5CCCN(C)CC5)cn4)c3)cc21 | > 2000
CCN1CCN(C(=O)c2ccnc(Nc3cc(-c4ccc5nnn(C(C)C)c5c4)ccn3)c2)CC1 | 510

These compounds were tested on HCT-116 (assay: Growth inhibition of human HCT-116 cells incubated for 48 hrs by CCK-8 assay).
Type: functional

SMILES | GI50 [nM]
CC(C)n1nnc2ccc(-c3ccnc(Nc4cc(C(=O)N5CCN(C)CC5)ccn4)c3)cc21 | 80
CC(C)n1nnc2ccc(-c3ccnc(Nc4cc(C(=O)N5CCOCC5)ccn4)c3)cc21 | 70
CC(C)n1nnc2ccc(-c3ccnc(Nc4ccc(C(=O)N5CCCC5)cn4)c3)cc21 | 310
CC(C)n1nnc2ccc(-c3ccnc(Nc4cc(C(=O)N5CCNC(=O)C5)ccn4)c3)cc21 | 520
CC(C)n1nnc2ccc(-c3ccnc(Nc4ccc(C(=O)N5CCCN(C)CC5)cn4)c3)cc21 | 280
CCN1CCN(C(=O)c2ccnc(Nc3cc(-c4ccc5nnn(C(C)C)c5c4)ccn3)c2)CC1 | 60

What follows are compounds tested against CDK9/cyclin T1 (Homo sapiens) (UniProt O60563+P50750) (assay: Inhibition of CDK9/Cyclin T1 (unknown origin) using PDKtide substrate at 500 nM incubated for 60 mins by ADP-Glo kinase assay relative to control).
Type: protein-complex assay

SMILES | inhibition [%]
O=C(c1ccc(Nc2cc(-c3ccc4nnn(C5CCCCC5)c4c3)ccn2)nc1)N1CCOCC1 | 98
O=C(c1ccc(Nc2cc(-c3ccc4nnn(C5CCCC5)c4c3)ccn2)c(C(F)(F)F)c1)N1CCOCC1 | 47.1

The compounds below were run against CDK9/cyclin T1 (Homo sapiens, UniProt P50750) (assay: Inhibition of CDK9/Cyclin T1 (unknown origin) using PDKtide substrate incubated for 60 mins by ADP-Glo kinase assay).
Sequence of CDK9/cyclin T1 (O60563 whole entry): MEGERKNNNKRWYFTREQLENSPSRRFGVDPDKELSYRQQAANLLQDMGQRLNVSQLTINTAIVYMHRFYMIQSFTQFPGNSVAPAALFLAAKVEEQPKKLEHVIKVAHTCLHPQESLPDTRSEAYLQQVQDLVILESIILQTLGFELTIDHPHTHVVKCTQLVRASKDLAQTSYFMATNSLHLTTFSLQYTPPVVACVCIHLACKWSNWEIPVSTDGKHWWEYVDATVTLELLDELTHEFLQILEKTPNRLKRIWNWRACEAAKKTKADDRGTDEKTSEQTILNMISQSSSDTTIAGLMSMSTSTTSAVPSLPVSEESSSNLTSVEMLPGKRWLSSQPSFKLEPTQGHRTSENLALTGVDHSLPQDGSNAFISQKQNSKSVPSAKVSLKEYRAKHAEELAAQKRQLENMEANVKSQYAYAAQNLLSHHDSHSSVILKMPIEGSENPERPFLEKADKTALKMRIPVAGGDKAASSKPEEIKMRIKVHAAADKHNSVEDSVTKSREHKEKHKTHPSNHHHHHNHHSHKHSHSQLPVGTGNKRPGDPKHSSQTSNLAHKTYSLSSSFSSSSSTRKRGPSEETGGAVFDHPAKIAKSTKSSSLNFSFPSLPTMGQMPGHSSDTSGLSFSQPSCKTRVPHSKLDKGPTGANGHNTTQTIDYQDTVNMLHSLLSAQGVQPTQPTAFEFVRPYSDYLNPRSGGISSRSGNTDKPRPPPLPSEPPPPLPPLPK
Sequence of CDK9/cyclin T1 (P50750 whole entry): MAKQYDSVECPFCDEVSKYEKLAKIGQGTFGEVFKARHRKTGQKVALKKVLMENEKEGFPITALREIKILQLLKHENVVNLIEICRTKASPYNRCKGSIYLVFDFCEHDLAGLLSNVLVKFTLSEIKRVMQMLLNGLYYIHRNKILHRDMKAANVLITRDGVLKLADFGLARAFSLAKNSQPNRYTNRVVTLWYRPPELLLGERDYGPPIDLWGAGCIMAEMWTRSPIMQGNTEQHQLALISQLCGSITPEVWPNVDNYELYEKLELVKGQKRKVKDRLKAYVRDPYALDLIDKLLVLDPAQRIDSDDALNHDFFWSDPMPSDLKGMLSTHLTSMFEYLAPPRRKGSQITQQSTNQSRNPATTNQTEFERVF
Type: protein-complex assay

SMILES | IC50 [nM]
O=C(c1ccc(Nc2cc(-c3ccc4nnn(C5CCCCC5)c4c3)ccn2)nc1)N1CCOCC1 | 13.2
CC(C)n1nnc2ccc(-c3ccnc(Nc4cc(C(=O)N5CCN(C)CC5)ccn4)c3)cc21 | 3.44
CC(C)n1nnc2ccc(-c3ccnc(Nc4cc(C(=O)N5CCOCC5)ccn4)c3)cc21 | 3.06
CC(C)n1nnc2ccc(-c3ccnc(Nc4ccc(C(=O)N5CCCC5)cn4)c3)cc21 | 6.62
CC(C)n1nnc2ccc(-c3ccnc(Nc4cc(C(=O)N5CCNC(=O)C5)ccn4)c3)cc21 | 1.94
CC(C)n1nnc2ccc(-c3ccnc(Nc4ccc(C(=O)N5CCCN(C)CC5)cn4)c3)cc21 | 3.05
CCN1CCN(C(=O)c2ccnc(Nc3cc(-c4ccc5nnn(C(C)C)c5c4)ccn3)c2)CC1 | 3.92
